From US7285555B2, “6-aryl-7-halo-imidazo[1,2-a]pyrimidines as anticancer agents” (Wyeth Holdings Corporation, priority 2003, dated 2007)

How the values were obtained:
[1] = system: highly purified tubulin (tubulin heterodimer); test: Competitive binding test procedure, [3H]vinblastine; set-up: species or system bovine; settings: competitor 100 μM, [3H]vinblastine 100 nM
Procedure: (§1) Medium is RPMI-1640 with L-glutamine, supplemented with 10% heat-inactivated fetal calf serum, 100 units/mL penicillin, and 100 μg/mL streptomycin (Gibco, Grand Island, N.Y.). Microtubule-associated protein (MAP)-rich tubulin, containing about 70% tubulin and 30% MAPs (#ML113), and highly purified tubulin (>99% pure, #TL238), both from bovine brain, are obtained from Cytoskeleton, Inc., Denver, Colo. PEM buffer (80 mM piperazine-N,N′-bis[2-ethanesulfonic acid], pH 6.9, 1 mM ethylene glycol-bis(β-aminoethyl ether)-N,N,N′,N′-tetraacetic acid, 1 mM magnesium chloride) and guanosine 5′-triphosphate (GTP) are also obtained from Cytoskeleton. [^3H]paclitaxel, specific activity 14.7 Ci/mmol, is purchased from Moravek Biochemicals (Brea, Calif.). [^3H]vinblastine, specific activity 9.60 Ci/mmol and MicroSpin G-50 columns are obtained from Amersham Biosciences (Piscataway, N.J.). […] Other reagents are obtained from Sigma (St. Louis, Mo.).
(§2) The binding of examples of this invention to highly purified tubulin is studied by competitive inhibition methods. […] To study possible competition at the taxane site, on the other hand, polymerized tubulin (microtubules) is used because paclitaxel binds preferentially to microtubules.
(§3) Highly purified tubulin is dissolved in PEM buffer without GTP and used at a final concentration of 1.0 to 1.3 mg/ml (10 to 13 μM). […] These solutions are incubated at 240 for 1 hr and then applied to MicroSpin G-50 columns which are centrifuged for 2 min at 3000 rpm in an Eppendorf 5415C microfuge. An aliquot of each column effluent (containing tubulin and bound radioligand) is mixed with scintillation fluid and counted in a liquid scintillation spectrometer. […] Quadruplicates are averaged, and the ability of the competitor to inhibit the binding of the radioligand is expressed as a percentage of control binding in the absence of any competitor.

[2] = system: MAP-rich tubulin; test: Tubulin polymerization test procedure with MAP-rich tubulin; type: biochemical, bovine; settings: MAP-rich tubulin with 1 mM GTP, compound 0.3 μM, at 20 min
Procedure: as §1
MAP-rich tubulin is dissolved in ice-cold PEM buffer containing 1 mM GTP (GPEM buffer) at a concentration of 1.3 mg/mL. The solution is centrifuged at top speed in an Eppendorf model 5415C microcentrifuge (Brinkmann Instruments, Westbury, N.Y.) for 10 min at 40 immediately before use. The tubulin solution is added to wells of a ½-area 96-well plate (Costar No. 3696, Corning, Inc., Corning, N.Y.) already containing the compounds of interest. Each compound is tested in duplicate at a final concentration of 0.3 μM in a volume of 110 μL per well. The final DMSO concentration in all wells is 0.3%. Control reactions, which receive compound solvent only, are done in quadruplicate. The plate is put in a SpectraMax Plus plate reader (Molecular Devices Corp. Sunnyvale, Calif.) thermostated at 240 and the absorbance of each well at 340 nm, a measure of the appearance of turbidity due to tubulin polymer formation, is determined every minute for 60 minutes. The absorbance at time 0 for each well is subtracted from each of the subsequent absorbance readings for that well, and then the duplicates are averaged.
In this assay, control reactions with MAP-rich tubulin show an S-shaped absorbance profile characterized by three phases: first, a lag phase during which no change in absorbance occurs; second, a polymerization phase in which absorbance increases; and third, a plateau phase in which absorbance has reached a maximum and little or no further change occurs. Polymerization enhancers such as paclitaxel and docetaxel shorten or eliminate the lag phase, increase the rate of the polymerization phase, and often increase the height of the plateau. […] This has been expressed quantitatively in Table 6 by dividing the mean A340 of each sample at 20 min by the mean A340 of the control at 20 min to give a fold enhancement over control. […]

[3] = system: pure tubulin; test: Tubulin polymerization test procedure with pure tubulin; type: biochemical, bovine; settings: pure tubulin without added GTP
Procedure: as §1
The procedure with pure tubulin is similar except for the following changes. […] The supernatant after centrifugation is dispensed to a ½-area 96-well plate already containing compounds. Each compound is tested in duplicate at a final concentration of 24.3 μM. The plate reader μs thermostated at 35°.

[4] = system: polymerized tubulin (microtubules); test: Competitive binding test procedure, [3H]paclitaxel; set-up: species or system bovine; settings: competitor 20 μM, [3H]paclitaxel 2.1 μM
Procedure: as §1, §2
For competition with [^3H]paclitaxel, highly purified tubulin is dissolved in PEM buffer containing 0.75 M glutamate and 25 μM dideoxy-GTP; final protein concentration is 0.25 to 0.35 mg/mL (2.5 to 3.5 μM). These conditions foster the rapid formation of short, stable microtubule polymers (Hamel, E., del Campo, A. A., and Lin, C. M. Stability of tubulin polymers formed with dideoxyguanosine nucleotides in the presence and absence of microtubule-associated proteins. J. Biol. Chem., 259: 2501-2508, 1984). […] The reactions are then centrifuged at top speed in an Eppendorf 5415C microfuge for 20 min at room temperature in order to pellet the microtubule protein. Triplicate aliquots of each supernatant are mixed with scintillation fluid and counted in a liquid scintillation spectrometer. From the amount of radioactivity in the supernatants and the measured total starting radioactivity, the amount of [^3H]paclitaxel bound to pelleted microtubule protein is calculated. The ability of each competitor to inhibit radioligand binding to pelleted protein is expressed as a percent of controls without any competitor.

[5] = system: highly purified tubulin (tubulin heterodimer); test: Competitive binding test procedure, [3H]colchicine; set-up: species or system bovine; settings: competitor 100 μM, [3H]colchicine 50 nM
Procedure: as §1, §2, §3

[3H]Vinblastine binding, Mean, percent of binding to control without competitor [1]: 5%
[3H]Paclitaxel binding, Mean, percent of binding to control without competitor [4]: 22%
[3H]Colchicine binding, Mean, percent of binding to control without competitor [5]: 99%
Structure (SMILES): CC[C@]1(O)C[C@H]2CN(CCc3c([nH]c4ccccc34)[C@@](C(=O)OC)(c3cc4c(cc3OC)N(C=O)[C@H]3[C@@](O)(C(=O)OC)[C@H](OC(C)=O)[C@]5(CC)C=CCN6CC[C@]43[C@@H]65)C2)C1 [Vincristine, reference compound]
A340 Compound / A340 Control (fold enhancement over control) [2]: 0.5
polymerization of pure tubulin without GTP (in words) [3]: no activity
